Source: patent US4223024A, “4"-O-Alkylgentamicins and sagamicins” (Abbott Laboratories, priority 1979, dated 1980)
Values after ≈ are worked out from the molar mass of the structure shown.

Legend:
[1] = tested on: Staphylococcus aureus ATCC 6538P; test: two fold dilution test (MIC), Staphylococcus aureus ATCC 6538P; assay type: cell-based; conditions: Streptomycin Assay Agar with yeast extract, pH 7.9, overnight
Procedure: (§1) The in vitro antibiotic activity is determined by a two fold dilution test using Streptomycin Assay Agar with yeast extract (at pH 7.9). The inoculum of approximately 1×10^5 of the indicated test organism is delivered by a multiple inoculator. The test is incubated over night.
(§2) The minimum inhibitory concentrations for the compounds of Example 4, Example 8, compound 1 and Example 12 compound, are set forth in Table II. The minimum inhibitory concentrations (MIC) are expressed in micrograms per ml.

[2] = tested on: Streptococcus faecalis ATCC 10541; test: two fold dilution test (MIC), Streptococcus faecalis ATCC 10541; assay type: cell-based; conditions: pH 7.9, overnight; for MIC (minimum inhibitory concentration): Streptomycin Assay Agar with yeast extract
Procedure: as §1, §2

Escherichia coli ATCC 26 = test: two fold dilution test (MIC), Escherichia coli ATCC 26; assay type: cell-based; conditions: pH 7.9, overnight; for MIC (minimum inhibitory concentration): Streptomycin Assay Agar with yeast extract
Procedure: as §1, §2

Escherichia coli R3 = test: two fold dilution test (MIC), Escherichia coli R3; assay type: cell-based; conditions: Streptomycin Assay Agar with yeast extract, pH 7.9, overnight
Procedure: as §1, §2

[3] = tested on: Pseudomonas aeruginosa BMH #1; test: two fold dilution test (MIC), Pseudomonas aeruginosa BMH #1; assay type: cell-based; conditions: Streptomycin Assay Agar with yeast extract, pH 7.9, overnight
Procedure: as §1, §2

[4] = tested on: Bacillis subtilis U. of I1. 10707; test: two fold dilution test (MIC), Bacillis subtilis U. of I1. 10707; assay type: cell-based; conditions: Streptomycin Assay Agar with yeast extract, pH 7.9, overnight
Procedure: as §1, §2

[5] = tested on: Proteus vulgaris ATCC 6897; test: two fold dilution test (MIC), Proteus vulgaris ATCC 6897; assay type: cell-based; conditions: pH 7.9, overnight; for MIC (minimum inhibitory concentration): Streptomycin Assay Agar with yeast extract
Procedure: as §1, §2

[6] = tested on: Shigella sonnei ATCC 9290; test: two fold dilution test (MIC), Shigella sonnei ATCC 9290; assay type: cell-based; conditions: pH 7.9, overnight; for MIC (minimum inhibitory concentration): Streptomycin Assay Agar with yeast extract
Procedure: as §1, §2

[7] = tested on: Salmonella typhi ATCC 9992; test: two fold dilution test (MIC), Salmonella typhi ATCC 9992; assay type: cell-based; conditions: for MIC (minimum inhibitory concentration): Salmonella typhi ATCC 9992, Streptomycin Assay Agar with yeast extract, pH 7.9, overnight
Procedure: as §1, §2

[8] = tested on: Klebsiella pneumonia ATCC 10031; test: two fold dilution test (MIC), Klebsiella pneumonia ATCC 10031; assay type: cell-based; conditions: pH 7.9, overnight; for MIC (minimum inhibitory concentration): Streptomycin Assay Agar with yeast extract
Procedure: as §1, §2

[9] = tested on: aerobic gram-negative bacteria; conditions: background statement; cited from earlier work
[10] = compared with gentamicin; background statement; cited from earlier work
[11] = read-out: MIC (minimum inhibitory concentration)

Row | Compound | MIC (minimum inhibitory concentration) [1] [µg/mL] | MIC (minimum inhibitory concentration) [2] [µg/mL] | MIC (minimum inhibitory concentration) (Escherichia coli ATCC 26) [µg/mL] | MIC (minimum inhibitory concentration) (Escherichia coli R3) [µg/mL] | MIC (minimum inhibitory concentration) [3] [µg/mL] | MIC (minimum inhibitory concentration) [4] [µg/mL] | MIC (minimum inhibitory concentration) [5] [µg/mL] | MIC (minimum inhibitory concentration) [6] [µg/mL] | MIC (minimum inhibitory concentration) [7] [µg/mL] | MIC (minimum inhibitory concentration) [8] [µg/mL] | further results
1 | CNC1C(O)C(OC2C(N)CC(N)C(OC3OC(CN)CCC3N)C2O)OCC1(C)OC (centres unmarked) [Ex 4, 4"-O-Methylgentamicin C1a] | 0.005 (≈ 0.0108 µM) | 10.000 (≈ 21.6 µM) | 0.005 (≈ 0.0108 µM) | 10.000 (≈ 21.6 µM) | 0.63 (≈ 1.36 µM) | 0.005 (≈ 0.0108 µM) | 0.08 (≈ 0.173 µM) | 0.04 (≈ 0.0863 µM) | 0.01 (≈ 0.0216 µM) | 0.005 (≈ 0.0108 µM) | 
2 | gentamicin |  |  |  |  |  |  |  |  |  |  | anti-bacterial spectrum / effectiveness [9]: effective against most aerobic gram-negative bacteria
3 | CNC1C(O)C(OC2C(N)CC(N)C(OC3OC(CN)CCC3N)C2O)OCC1(C)OC (stereo not drawn) [Ex 12, 5-Epi-4"-O-methylgentamicin C1a] | 0.005 (≈ 0.0108 µM) | 25.00 (≈ 53.9 µM) | 0.02 (≈ 0.0431 µM) | 2.5 (≈ 5.39 µM) | 0.63 (≈ 1.36 µM) | 0.005 (≈ 0.0108 µM) | 0.08 (≈ 0.173 µM) | 0.08 (≈ 0.173 µM) | 0.01 (≈ 0.0216 µM) | 0.005 (≈ 0.0108 µM) | 
4 | CNCC1CCC(N)C(OC2C(N)CC(N)C(OC3OCC(C)(O)C(NC)C3O)C2O)O1 (centres unmarked) [Sagamicin, sagamicin] |  |  |  |  |  |  |  |  |  |  | ototoxicity [10]: lower ototoxicity than does gentamicin
5 | CNCC1CCC(N)C(OC2C(N)CC(N)C(OC3OCC(C)(OC)C(NC)C3O)C2O)O1 (centres unmarked) [Ex 8(1), 4"-O-Methylsagamicin] |  |  |  |  |  |  |  |  |  |  | MIC ([1]; ATCC6538P, read-out: MIC (minimum inhibitory concentration)): 0.05 µg/mL (≈ 0.105 µM); MIC ([2]; Enterococcus faecalis, ATCC10541, Streptomycin Assay Agar with yeast extract, read-out: MIC (minimum inhibitory concentration)): 12.5 µg/mL (≈ 26.2 µM); MIC (Escherichia coli ATCC 26; ATCC26, Streptomycin Assay Agar with yeast extract, read-out: MIC (minimum inhibitory concentration)): 0.05 µg/mL (≈ 0.105 µM); MIC (Escherichia coli R3; [11]): 3.1 µg/mL (≈ 6.49 µM); MIC [3, 11]: 0.4 µg/mL (≈ 0.838 µM); MIC [4, 11]: 0.005 µg/mL (≈ 0.0105 µM); MIC ([5]; ATCC6897, Streptomycin Assay Agar with yeast extract, read-out: MIC (minimum inhibitory concentration)): 0.05 µg/mL (≈ 0.105 µM); MIC ([6]; ATCC9290, Streptomycin Assay Agar with yeast extract, read-out: MIC (minimum inhibitory concentration)): 0.05 µg/mL (≈ 0.105 µM); MIC ([7]; Salmonella enterica, pH 7.9, read-out: MIC (minimum inhibitory concentration)): 0.05 µg/mL (≈ 0.105 µM); MIC ([8]; Klebsiella pneumoniae, ATCC10031, Streptomycin Assay Agar with yeast extract, read-out: MIC (minimum inhibitory concentration)): 0.05 µg/mL (≈ 0.105 µM)
